Values belong to the compound of their own block, whether it stands above or below them.
What was measured:
[1] = test system: mouse peritoneal mast cells; test: Mouse peritoneal mast cell histamine release assay; type: cell-based; settings: 5 minutes, room temperature; HTRF histamine assay
[2] = Drug preparation and storage: stability of solutions; type: physicochemical; settings: solutions prepared on the day of the experiment
MrgprB2 = target: T1, MrgprB2 (Mus musculus, UniProt Q3KNA1); test: Calcium imaging in HEK293 cells expressing MrgprB2; type: cell-based; settings: HEK293 cells heterologously expressing MrgprB2
T1 sequence (Q3KNA1 1-338): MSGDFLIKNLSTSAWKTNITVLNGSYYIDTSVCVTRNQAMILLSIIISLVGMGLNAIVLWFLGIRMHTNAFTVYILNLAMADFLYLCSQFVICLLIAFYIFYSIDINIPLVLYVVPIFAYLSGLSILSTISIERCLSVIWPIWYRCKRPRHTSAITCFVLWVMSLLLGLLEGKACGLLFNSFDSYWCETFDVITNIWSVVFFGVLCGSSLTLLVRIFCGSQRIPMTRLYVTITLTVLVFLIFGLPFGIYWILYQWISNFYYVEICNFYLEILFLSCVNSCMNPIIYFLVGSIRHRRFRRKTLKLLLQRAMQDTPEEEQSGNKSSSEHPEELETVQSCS

Compound: COc1ccc(CC2c3cc(OC)c(OC)cc3CC[N+]2(C)CCC(=O)OCCCCCOC(=O)CC[N+]2(C)CCc3cc(OC)c(OC)cc3C2Cc2ccc(OC)c(OC)c2)cc1OC (stereo not shown) [Atracurium, atracurium]
histamine release from WT peritoneal mast cells (MrgprB2MUT mast cells released substantially less) [1]: induced histamine release
stability of potency of drug solutions [2]: susceptible to oxidation and/or freeze-thaw effects

response of MrgprB2-HEK cells ([Ca2+]i) (MrgprB2): no response
Compound: CCN(CC)CCCC(C)Nc1ccnc2cc(Cl)ccc12 (stereo not shown) [CQ, chloroquine]

Compound: O=C(O)c1cn(C2CC2)c2cc(N3CCNCC3)c(F)cc2c1=O [Ciprofloxacin, ciprofloxacin]
histamine release from WT peritoneal mast cells (MrgprB2MUT mast cells released substantially less) [1]: induced histamine release

Compound: COc1cc2c(cc1OC)[C@@H](Cc1cc(OC)c(OC)c(OC)c1)[N+](C)(CCCOC(=O)CC/C=C/CCC(=O)OCCC[N+]1(C)CCc3cc(OC)c(OC)cc3[C@H]1Cc1cc(OC)c(OC)c(OC)c1)CC2 (stereo partly shown) [mivacurium]
stability of potency of drug solutions [2]: susceptible to oxidation and/or freeze-thaw effects

Compound: COc1cc2c3cc1Oc1cc(ccc1O)C[C@@H]1c4c(cc(OC)c(O)c4Oc4ccc(cc4)C[C@@H]3N(C)CC2)CC[N+]1(C)C [tubocurarine]
stability of potency of drug solutions [2]: susceptible to oxidation and/or freeze-thaw effects

Compound: icatibant
histamine release from WT peritoneal mast cells (MrgprB2MUT mast cells released substantially less) [1]: induced histamine release

— PMC4359082 (Nature, 2014)
